Test [1] relates to TC32 Ewing sarcoma cells, expressing EWS-FLI1. Kind of test: Growth inhibition assay, TC32 cells. The class given is cell-based. The settings on record: for TC32 vs. PC3 / IC50: Table 1C; for TC32 vs. PC3: cellular selectivity; for IC50: read-out: IC50 TC-32; for EC50: Table 1D, read-out: TC-32 Mean EC50; for PC:TC32 (cellular selectivity): ratio of GI50 PC3 to TC32.
Test [2] deals with PC3 Prostate Cancer Cells. Nature of the test: Growth inhibition assay, PC3 cells. The following applies: for IC50: Table 1C; for EC50: Table 1D. The class given is cell-based. As to the method: Growth inhibition assay to assess cytotoxicity in ETS vs non-ETS expressing cells. Cells were seeded in clear 96-well plates (VWR, Radnor, PA). Seeding densities were optimized for each cell line to support 5 days of linear growth. Following a 24 hours attachment period, cells in duplicate wells were treated with half-log increments of respective compounds (0 nM and 0.3 nM-10 μM). Working stocks were prepared from an initial 10 mM drug stock diluted in either 100% ethanol or dimethyl sulfoxide (DMSO). All wells contained a final concentration of 0.1% (v/v) respective organic solvent. Immediately following treatment, cell viability was measured for vehicle control (Day 0) wells. Cell viability was measured in the remaining wells after 72 hours of incubation with compound or vehicle control (Day 3).
Percent viability, relative to the initial cell seeding concentration, was calculated by ((TreatmentDay3−Vehicle ControlDay0)/(Vehicle ControlDay3−Vehicle ControlDay0))×100. Percent cell viability was plotted as a function of compound concentration (Log [M]) and the data were fit using a 3-parameter non-linear model with fixed Hill slope constant and 4-parameter non-linear model with variable Hill slope constant. The model with the best curve fit was used to estimate the GI50 in GraphPad Prism 7.0 software (GraphPad Software, La Jolla, CA). The 3-parameter equation used was Y=Bottom+(Top−Bottom)/(1+10[…]((X−Log[IC50]))). The 4-parameter equation used was Y=Bottom+(Top−Bottom)/(1+10[…]((Log[IC50]−X)*Hillslope)). Top and Bottom are plateaus in the units of the Y-axis (response). IC50 is the response (Y-axis) halfway between Top and Bottom plateaus.
All compounds were tested at least once in multi-well replicates and each experiment included one a control compound (i.e., MTM) to ensure the stable response of the cell lines. The selectivity index was estimated by determining the ratio of GI50 estimates between ETS fusion negative and ETS fusion positive cell lines.

The text below walks through data of US12486300B2, “Mithramycin oxime derivatives having increased selectivity and anti-cancer activity” (University of Kentucky Research Foundation, priority 2018, dated 2025).

Broadly, the IC50 is the point on the concentration scale where inhibition reaches its midpoint. By EC50 is commonly meant the concentration needed to bring the measured effect to its halfway point.

SMILES strings stand for the structures.

On to `COC(C(=NOCC(=O)N(C)C(Cc1cn(C)c2ccccc12)C(=O)N1CCOCC1)C(O)C(C)O)C1Cc2cc3cc(OC4CC(OC5CC(O)C(O)C(C)O5)C(O)C(C)O4)c(C)c(O)c3c(O)c2C(=O)C1OC1CC(OC2CC(OC3CC(C)(O)C(O)C(C)O3)C(O)C(C)O2)C(O)C(C)O1` (stereo not shown) [AK-B6], for which, in test [1], the “TC32 vs. PC3” value was above 3×, the IC50 is 0.032 to 0.12 µM and the EC50 worked out at 0.0107 µM. In addition, in test [2], the IC50 lay within 0.15 to 0.37 µM and the EC50 was determined as 0.0523 µM.

On to `COC(C(=NOCC(=O)NC(Cc1cn(C)c2ccccc12)C(=O)N1CCOCC1)C(O)C(C)O)C1Cc2cc3cc(OC4CC(OC5CC(O)C(O)C(C)O5)C(O)C(C)O4)c(C)c(O)c3c(O)c2C(=O)C1OC1CC(OC2CC(OC3CC(C)(O)C(O)C(C)O3)C(O)C(C)O2)C(O)C(C)O1` (stereo not shown) [AK-B11], for which, in test [1], the “TC32 vs. PC3” value was above 8×, the concentration for half-maximal inhibition (IC50) was in the range of 0.147 to 0.3 µM and the 50% effective concentration (EC50) worked out at 0.0498 µM. Moreover, in test [2], the IC50 was in the range of 1.6 to 2.5 µM and the EC50 was 0.666 µM.

Consider `CCOC(=O)[C@H](Cc1c[nH]c2ccccc12)NC(=O)CO/N=C(\[C@@H](O)[C@@H](C)O)[C@@H](OC)[C@@H]1Cc2cc3cc(O[C@H]4C[C@@H](O[C@H]5C[C@@H](O)[C@H](O)C(C)O5)[C@H](O)C(C)O4)c(C)c(O)c3c(O)c2C(=O)[C@H]1O[C@H]1C[C@@H](O[C@H]2C[C@@H](O[C@H]3C[C@](C)(O)[C@H](O)C(C)O3)[C@H](O)C(C)O2)[C@H](O)C(C)O1` (stereo partly shown) [MTM (41)], for which, in test [1], the EC50 came to 0.266 µM and the “PC:TC32 (cellular selectivity)” value was 13.5. Moreover, the midpoint of the response in test [2], the EC50, lay at 4.06 µM.

Regarding `CO[C@H](/C(=N/OCC(=O)N[C@@H](Cc1c[nH]c2ccccc12)C(N)=O)[C@@H](O)[C@@H](C)O)[C@@H]1Cc2cc3cc(O[C@H]4C[C@@H](O[C@H]5C[C@@H](O)[C@H](O)C(C)O5)[C@H](O)C(C)O4)c(C)c(O)c3c(O)c2C(=O)[C@H]1O[C@H]1C[C@@H](O[C@H]2C[C@@H](O[C@H]3C[C@](C)(O)[C@H](O)C(C)O3)[C@H](O)C(C)O2)[C@H](O)C(C)O1` (stereo partly shown) [MTM (42)], the results for the concentration for a half-maximal effect (EC50) in test [1] and in test [2] were 0.304 µM and 3.55 µM, respectively. In test [1], the “PC:TC32 (cellular selectivity)” value is 8.5.

With `CO[C@H](/C(=N/OCC(=O)N[C@@H](Cc1c[nH]c2ccccc12)C(=O)N(C)C)[C@@H](O)[C@@H](C)O)[C@@H]1Cc2cc3cc(O[C@H]4C[C@@H](O[C@H]5C[C@@H](O)[C@H](O)C(C)O5)[C@H](O)C(C)O4)c(C)c(O)c3c(O)c2C(=O)[C@H]1O[C@H]1C[C@@H](O[C@H]2C[C@@H](O[C@H]3C[C@](C)(O)[C@H](O)C(C)O3)[C@H](O)C(C)O2)[C@H](O)C(C)O1` (stereo partly shown) [MTM (44)], in test [1], the 50% effective concentration (EC50) is 0.0845 µM and the “PC:TC32 (cellular selectivity)” value was 35. The compound further registered an EC50 in test [2] above 1.47 µM.

Regarding `CO[C@H](/C(=N/OCC(=O)N[C@@H](Cc1c[nH]c2ccccc12)C(=O)N(C)OC)[C@@H](O)[C@@H](C)O)[C@@H]1Cc2cc3cc(O[C@H]4C[C@@H](O[C@H]5C[C@@H](O)[C@H](O)C(C)O5)[C@H](O)C(C)O4)c(C)c(O)c3c(O)c2C(=O)[C@H]1O[C@H]1C[C@@H](O[C@H]2C[C@@H](O[C@H]3C[C@](C)(O)[C@H](O)C(C)O3)[C@H](O)C(C)O2)[C@H](O)C(C)O1` (stereo partly shown) [MTM (54)], in test [1], the concentration giving a half-maximal response (EC50) worked out at 0.067 µM and the “PC:TC32 (cellular selectivity)” value is 1.7. Moreover, the EC50 in test [2] is 0.437 µM.

As for `CO[C@H](/C(=N/OCC(=O)N[C@H](CO)Cc1c[nH]c2ccccc12)[C@@H](O)[C@@H](C)O)[C@@H]1Cc2cc3cc(O[C@H]4C[C@@H](O[C@H]5C[C@@H](O)[C@H](O)C(C)O5)[C@H](O)C(C)O4)c(C)c(O)c3c(O)c2C(=O)[C@H]1O[C@H]1C[C@@H](O[C@H]2C[C@@H](O[C@H]3C[C@](C)(O)[C@H](O)C(C)O3)[C@H](O)C(C)O2)[C@H](O)C(C)O1` (stereo partly shown) [MTM (59)], the EC50 in test [1] was 0.0847 µM; in test [2], 0.313 µM. Besides, the “PC:TC32 (cellular selectivity)” value in test [1] is given as 4.8.
